Reference: US12077503B2, “Substituted cyclic amides and their use as herbicides” (FMC CORPORATION, priority 2015, dated 2024)

Legend:
Type in all cases: in vivo
rice (Oryra sativa) = experiment: Test B flooded paddy test; conditions: Flood, 250 g ai/ha; 0 to 100 scale where 0 is no effect and 100 is complete control; 13 to 15 d
How it was run: (§1)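 Plants at 2-leaf stage flooded to 3 cm above soil, with compounds applied directly to paddy water and that depth maintained. Plants kept in greenhouse 13–15 d. Visual rating versus controls on a 0 (no effect) to 100 (complete control) scale.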

[1] = system: barnyardgrass (Echinochloa crus-galli); experiment: Test B flooded paddy test; conditions: Flood, 250 g ai/ha; 0 to 100 scale where 0 is no effect and 100 is complete control; 13 to 15 d
How it was run: as §1

[2] = system: ducksalad (Heteranthera limosa); experiment: Test B flooded paddy test; conditions: Flood, 250 g ai/ha; 0 to 100 scale where 0 is no effect and 100 is complete control; 13 to 15 d
How it was run: as §1

[3] = system: sedge, umbrella (small-flower umbrella sedge, Cyperus difformis); experiment: Test B flooded paddy test; conditions: Flood, 250 g ai/ha; 0 to 100 scale where 0 is no effect and 100 is complete control; 13 to 15 d
How it was run: as §1

[4] = system: wheat (Triticum aestivum); experiment: Test A postemergence; conditions: for Wheat plant response rating: 125 g ai/ha, visual injury rating on 0 to 100 scale (0 no effect, 100 complete control), approx. 10 d; for Plant response rating, Wheat: 500 g ai/ha
How it was run: (§2)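 Seeded soil received test chemicals as a preemergence directed spray, and seedlings at one to two leaves, 2–10 cm tall, received them postemergence, in a non-phytotoxic, surfactant-containing solvent mixture. Pots were held in a greenhouse for approximately 10 d, then rated for injury from 0, no effect, to 100, complete control.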

corn (Zea mays) = experiment: Test A postemergence; conditions: for Corn plant response rating: 125 g ai/ha, visual injury rating on 0 to 100 scale (0 no effect, 100 complete control), approx. 10 d; for Plant response rating, Corn: 500 g ai/ha
How it was run: as §2

[5] = system: Galium (catchweed bedstraw, Galium aparine); experiment: Test A postemergence; conditions: for Galium plant response rating: 125 g ai/ha, visual injury rating on 0 to 100 scale (0 no effect, 100 complete control), approx. 10 d; for Plant response rating, Galium: 500 g ai/ha
How it was run: as §2

Kochia (Kochia scoparia) [6] = experiment: Test A postemergence; conditions: for Kochia plant response rating: 125 g ai/ha, visual injury rating on 0 to 100 scale (0 no effect, 100 complete control), approx. 10 d; for Plant response rating, Kochia: 500 g ai/ha
How it was run: as §2

[7] = system: barnyardgrass (Echinochloa crus-galli); experiment: Test A postemergence; conditions: for Barnyardgrass plant response rating: 125 g ai/ha, visual injury rating on 0 to 100 scale (0 no effect, 100 complete control), approx. 10 d; for Plant response rating, Barnyardgrass: 500 g ai/ha
How it was run: as §2

[8] = system: ragweed (common ragweed, Ambrosia elatior); experiment: Test A postemergence; conditions: for Ragweed plant response rating: 125 g ai/ha, visual injury rating on 0 to 100 scale (0 no effect, 100 complete control), approx. 10 d; for Plant response rating, Ragweed: 500 g ai/ha
How it was run: as §2

[9] = system: giant foxtail (Setaria faberii); experiment: Test A postemergence; conditions: for Foxtail, Giant plant response rating: 125 g ai/ha, visual injury rating on 0 to 100 scale (0 no effect, 100 complete control), approx. 10 d; for Plant response rating, Foxtail, Giant: 500 g ai/ha
How it was run: as §2

[10] = system: blackgrass (Alopecurus myosuroides); experiment: Test A postemergence; conditions: for Blackgrass plant response rating: 125 g ai/ha, visual injury rating on 0 to 100 scale (0 no effect, 100 complete control), approx. 10 d; for Plant response rating, Blackgrass: 500 g ai/ha
How it was run: as §2

[11] = system: pigweed (Amaranthus retroflexus); experiment: Test A postemergence; conditions: for Pigweed plant response rating: 125 g ai/ha, visual injury rating on 0 to 100 scale (0 no effect, 100 complete control), approx. 10 d; for Plant response rating, Pigweed: 500 g ai/ha
How it was run: as §2

[12] = system: ryegrass, Italian (Italian ryegrass, Lolium multiflorum); experiment: Test A postemergence; conditions: for Ryegrass, Italian plant response rating: 125 g ai/ha, visual injury rating on 0 to 100 scale (0 no effect, 100 complete control), approx. 10 d; for Plant response rating, Ryegrass, Italian: 500 g ai/ha
How it was run: as §2

Kochia (Kochia scoparia) [13] = experiment: Test A preemergence; conditions: for Plant response rating, Kochia: 125 g ai/ha; for Kochia plant response rating (0 to 100 scale, 0 is no effect, 100 is complete control): 500 g ai/ha, visual injury approx. 10 d
How it was run: as §2

[14] = system: barnyardgrass (Echinochloa crus-galli); experiment: Test A preemergence; conditions: for Plant response rating, Barnyardgrass: 125 g ai/ha; for Barnyardgrass plant response rating (0 to 100 scale, 0 is no effect, 100 is complete control): 500 g ai/ha, visual injury approx. 10 d
How it was run: as §2

[15] = system: ragweed (common ragweed, Ambrosia elatior); experiment: Test A preemergence; conditions: for Plant response rating, Ragweed: 125 g ai/ha; for Ragweed plant response rating (0 to 100 scale, 0 is no effect, 100 is complete control): 500 g ai/ha, visual injury approx. 10 d
How it was run: as §2

[16] = system: giant foxtail (Setaria faberii); experiment: Test A preemergence; conditions: for Plant response rating, Foxtail, Giant: 125 g ai/ha; for Foxtail, Giant plant response rating (0 to 100 scale, 0 is no effect, 100 is complete control): 500 g ai/ha, visual injury approx. 10 d
How it was run: as §2

[17] = system: pigweed (Amaranthus retroflexus); experiment: Test A preemergence; conditions: for Plant response rating, Pigweed: 125 g ai/ha; for Pigweed plant response rating (0 to 100 scale, 0 is no effect, 100 is complete control): 500 g ai/ha, visual injury approx. 10 d
[18] = system: ryegrass, Italian (Italian ryegrass, Lolium multiflorum); experiment: Test A preemergence; conditions: for Plant response rating, Ryegrass, Italian: 125 g ai/ha; for Ryegrass, Italian plant response rating (0 to 100 scale, 0 is no effect, 100 is complete control): 500 g ai/ha, visual injury approx. 10 d
How it was run: as §2

[19] = postemergence, 0 to 100 scale, 0 no effect, 100 complete control
[20] = preemergence, 0 to 100 scale (0 no effect, 100 complete control)
[21] = Postemergence, 0 to 100 scale where 0 is no effect and 100 is complete control
[22] = Preemergence, visual injury after approximately 10 d, 0 to 100 scale where 0 is no effect and 100 is complete control

| Compound | Plant response rating, Rice (rice (Oryra sativa)) | Plant response rating, Barnyardgrass [1] | Plant response rating, Ducksalad [2] | Plant response rating, Sedge, Umbrella [3] | Wheat plant response rating ([4]; postemergence) | Corn plant response rating (corn (Zea mays); postemergence) | Galium plant response rating ([5]; postemergence) | Kochia plant response rating (Kochia (Kochia scoparia) [6]; postemergence) | Barnyardgrass plant response rating ([7]; postemergence) | Ragweed plant response rating ([8]; postemergence) | Foxtail, Giant plant response rating ([9]; postemergence) | Blackgrass plant response rating ([10]; postemergence) | Pigweed plant response rating ([11]; postemergence) | Ryegrass, Italian plant response rating ([12]; postemergence) | Kochia plant response rating (0 to 100 scale, 0 is no effect, 100 is complete control) (Kochia (Kochia scoparia) [13]; Preemergence) | Barnyardgrass plant response rating (0 to 100 scale, 0 is no effect, 100 is complete control) ([14]; Preemergence) | Ragweed plant response rating (0 to 100 scale, 0 is no effect, 100 is complete control) ([15]; Preemergence) | Foxtail, Giant plant response rating (0 to 100 scale, 0 is no effect, 100 is complete control) ([16]; Preemergence) | Pigweed plant response rating (0 to 100 scale, 0 is no effect, 100 is complete control) ([17]; Preemergence) | Ryegrass, Italian plant response rating (0 to 100 scale, 0 is no effect, 100 is complete control) ([18]; Preemergence) | further results |
| --- | --- | --- | --- | --- | --- | --- | --- | --- | --- | --- | --- | --- | --- | --- | --- | --- | --- | --- | --- | --- | --- |
| O=C(Nc1cccc(F)c1F)C1C(=O)N(c2ccccc2)CC1c1cccc(C(F)(F)F)c1 (stereo not drawn) [Compound 457] | 0 | 0 | 0 | 0 | 0 | 0 | 0 | 0 | 0 | 0 | 0 | 0 | 0 | 0 | 0 | 0 | 0 | 0 | 0 | 0 | Plant response rating, Wheat [4, 19]: 0; Plant response rating, Corn (corn (Zea mays); [19]): 0; Plant response rating, Galium [5, 19]: 0; Plant response rating, Kochia (Kochia (Kochia scoparia) [6]; [19]): 0; Plant response rating, Barnyardgrass [7, 19]: 0; Plant response rating, Ragweed [8, 19]: 0; Plant response rating, Foxtail, Giant [9, 19]: 0; Plant response rating, Blackgrass [10, 19]: 0; Plant response rating, Pigweed [11, 19]: 0; Plant response rating, Ryegrass, Italian [12, 19]: 0; Plant response rating, Kochia (Kochia (Kochia scoparia) [13]; [20]): 0; Plant response rating, Barnyardgrass [14, 20]: 0; Plant response rating, Ragweed [15, 20]: 0; Plant response rating, Foxtail, Giant [16, 20]: 0; Plant response rating, Pigweed [17, 20]: 0; Plant response rating, Ryegrass, Italian [18, 20]: 0 |
| CN1CC(c2ccc(C(F)(F)F)cc2F)C(C(=O)Nc2ccccc2S(C)(=O)=O)C1=O (stereo not drawn) [Compound 473] | 20 | 40 | 75 | 0 | 0 | 0 | 60 | 40 | 90 | 50 | 70 | 40 | 50 | 0 | 80 | 100 | 70 | 100 | 90 | 90 | Plant response rating, Wheat [4, 21]: 40; Plant response rating, Corn (corn (Zea mays); [19]): 40; Plant response rating, Galium [5, 21]: 60; Plant response rating, Kochia (Kochia (Kochia scoparia) [6]; [21]): 80; Plant response rating, Barnyardgrass [7, 19]: 90; Plant response rating, Ragweed [8, 21]: 50; Plant response rating, Foxtail, Giant [9, 21]: 90; Plant response rating, Blackgrass [10, 19]: 60; Plant response rating, Pigweed [11, 21]: 90; Plant response rating, Ryegrass, Italian [12, 21]: 40; Plant response rating, Kochia (Kochia (Kochia scoparia) [13]; [20]): 80; Plant response rating, Barnyardgrass [14, 20]: 80; Plant response rating, Ragweed [15, 22]: 20; Plant response rating, Foxtail, Giant [16, 20]: 90; Plant response rating, Pigweed [17, 22]: 80; Plant response rating, Ryegrass, Italian [18, 22]: 0 |
| O=C1NCC(c2cc(F)cc(Cl)c2)C1C(=O)Nc1ccc(F)cc1F (stereo not drawn) [Compound 493] | 25 | 60 | 80 | 0 | 0 | 0 | 30 | 0 | 90 | 20 | 90 | 20 | 0 | 20 | 20 | 90 | 30 | 90 | 0 | 20 | Plant response rating, Wheat [4, 21]: 30; Plant response rating, Corn (corn (Zea mays); [21]): 70; Plant response rating, Galium [5, 21]: 40; Plant response rating, Kochia (Kochia (Kochia scoparia) [6]; [21]): 20; Plant response rating, Barnyardgrass [7, 21]: 90; Plant response rating, Ragweed [8, 21]: 20; Plant response rating, Foxtail, Giant [9, 21]: 90; Plant response rating, Blackgrass [10, 21]: 50; Plant response rating, Pigweed [11, 21]: 0; Plant response rating, Ryegrass, Italian [12, 21]: 50; Plant response rating, Kochia (Kochia (Kochia scoparia) [13]; [22]): 0; Plant response rating, Barnyardgrass [14, 22]: 90; Plant response rating, Ragweed [15, 22]: 0; Plant response rating, Foxtail, Giant [16, 22]: 90; Plant response rating, Pigweed [17, 22]: 0; Plant response rating, Ryegrass, Italian [18, 22]: 0 |
